| melting point [°C] | Structure (SMILES) |
| --- | --- |
| 178 | CS(=O)(=O)C(=C1CN(C(c2ccccc2)c2ccccc2)C1)c1ccc2ccccc2c1 |
| > 320 | NC(=O)N[C@H]1CC[C@H](NC(N)=O)CC1 |
| 86 to 90 | CCCCCCCCON1C(C)(C)CC(OC(=O)COc2ccc(-c3nc(-c4ccc(C)cc4C)nc(-c4ccc(C)cc4C)n3)c(O)c2)CC1(C)C |
| 170 to 171 | O=C(NCc1ccccc1)c1ccnc(NC(=O)c2ccc(F)cc2)c1 |
| 184 to 185 | Cc1cc(C(C)(C)C)c(O)c(S(=O)(=O)Nc2ccc(I)cc2)c1 |
| 300 to 304 | Cc1nc(N)sc1-c1ccnc(Nc2ccc(N3CCOCC3)cc2)n1 |
| 267 | Cc1ccc2c(c1)C(=O)c1ccc(-c3nnn[nH]3)cc1S2(=O)=O |
| 59 to 62 | O=C(NCCN1CCOc2ccc(O)cc21)c1ccco1 |
| 168 to 169 | O=C(Nc1ccc(-n2nc(C(F)(F)F)cc2C(F)(F)F)cc1)c1cc(F)ccc1F |
| 189 to 190 | NC(=O)c1cccc(-c2cccc3sc(Cc4ccc(F)c(F)c4)cc23)c1 |
| 198 to 200 | NC(=O)NC1COCC1c1ccccc1-n1nc(C(F)(F)F)cc1C(F)(F)F (stereo not given) |
| 216 to 220 | CCOC(=O)c1cnc(N(C)Cc2cc3nc(-c4cccc(OCCO)c4)nc(N4CCOCC4)c3s2)nc1 |
| 140 | CCCC(=O)OC1c2ccccc2C(=O)N1c1ccc2ccc(Cl)nc2n1 (stereo not given) |
| 64 | COC(=O)CCCc1cc2nc(Cl)ccc2n1S(=O)(=O)c1cccc2cccnc12 |
| 118 to 120 | COc1ccc(C=O)cc1-c1nsc2ccc(-n3c(=O)cc(C(F)(F)F)n(C)c3=O)cc12 |
| 80 to 90 | CC(C)(C)S(=O)c1cccc(F)c1C(=O)NCCCl (stereo not given) |
| 115 to 117 | Nc1ccccc1Oc1ccc2ncccc2c1 |
| 200 to 201 | NC(=O)CC(=O)c1cn2c3c(cccc13)CCC2 |
| 262 to 264 | N#Cc1ccc(NC(=O)c2ccc(S(=O)(=O)N3CCc4cc(Cl)ccc43)cc2)c(-c2n[nH]c(=O)o2)c1 |
| 53 to 54 | OCC1(c2ccc(Cl)cc2)CCC1 |
| 175 | c1ccc(Oc2ccc(Nc3ncnc4cnc(N5CCCCC5)nc34)cc2)cc1 |
| 169 | COC(=O)CCn1c(C(=O)O)c(C)c2cc(C)ccc21 |

| melting point [°C] | Structure (SMILES) |
| --- | --- |
| 191 to 192 | O=[N+]([O-])c1ccc(S(=O)(=O)Nc2cccnc2Nc2ccccc2)cc1 |
| 172 to 175 | CCCOCCN(CC)c1ccc(-c2ccc3c(c2)C=C(C(=O)Nc2ccc(CN(C)C4CCOCC4)cc2)CCS3(=O)=O)cc1 |
| 190 to 193 | CN1C(=O)[C@@](NC(=O)Nc2cccc(Nc3nnn[nH]3)c2)(C2CCCCC2)N=Cc2ccccc21 |
| 33 to 34 | COC(=O)Oc1ccc(OC)cc1 |
| 97 | CCCCCCCNC(=O)N(C)c1ncc(-c2ccc(C[C@H](OCC)C(=O)O)cc2)s1 |
| 157 | O=C1/C(=C(/c2ccccc2)N2CCCC2)Sc2ccccc21 |
| 168 to 170 | CCOCc1nc2c(N)nc3cccnc3c2n1CCCCCC(=O)N1CCOCC1 |
| 50 to 51 | CCCCCCCCCCCCCCOc1ccc(C(=O)OC)cc1OCCCCCCCCCCCCCC |
| 81 to 83 | CCCOc1nc2sc(Cl)cc2c(=S)n1CCC |
| 135 to 137 | CC(=O)NCC1CC1c1c(Br)ccc2nn(C)cc12 (stereo not given) |
| 119 to 127 | CC(=O)OC1CSC(Oc2cccnc2-c2nnn[nH]2)C(OC(C)=O)C1OC(C)=O (stereo not given) |
| 161 to 162 | O=C(CCl)Nc1ccc2c(c1NC(=O)CSc1ccccc1)C(=O)c1ccccc1C2=O |
| > 250 | COc1cc2ncc(C#N)c(Nc3ccc(O)cc3O)c2cc1OC |
| 204 to 206 | CCCOc1cc2ccccc2c2c(=O)c(-c3ccc(OC)cc3)c(C)[nH]c12 |
| 143 to 144 | CC(O)=C(C#N)C(=O)Nc1ccc(Cl)cc1Cl |
| 118 to 119 | CCCC[C@H](NC(=O)[C@H](CC(C)C)NC(=O)c1ccccc1C)C(=O)CSCc1ccco1 |
| 114 to 115 | CCOC(=O)Cn1cc(Cc2nc3c(F)c(F)cc(F)c3s2)c2ccc(CC)nc21 |
| 89.5 | CN1CCN(Cc2nc3cccnc3n2CCO)CC1 |
| 79 to 81 | CCOc1ccccc1N1CCN(CCCC2CN(C)C(=O)O2)CC1 (stereo not given) |
| 240 to 244 | O=C(CN1CCN(c2ccncc2)CC1)c1ccc(CC(O)=S)cc1 |
| 98 to 102 | O=C(O)c1ccc(OCCNC(=O)C2Cc3ccccc3N2S(=O)(=O)c2ccc(-c3ccc(F)cc3Cl)cc2)cc1F (stereo not given) |
| 76 to 77 | CC(C)c1cccc(-n2cnc(CO)c2)c1 |

| melting point [°C] | Structure (SMILES) |
| --- | --- |
| 161 to 175 | COc1cc(OC)nc(C2(O)OC(=O)c3c(Cl)ccc(Cl)c32)n1 (stereo not given) |
| 131 | COc1ccc(-c2cc(=O)n(CCc3ccc(OC)c(OC)c3)nc2-c2ccc(OC)cc2)cc1 |
| 85 to 90 | COc1cc(O)c(C(=O)c2ccccc2F)c(Cl)c1 |
| 156 | Cc1cccc(NC(=O)NCC(=O)N2[C@@H](C(=O)OC(C)(C)C)CC[C@H]2c2ccccc2)c1 (racemic) |
| 140 to 145 | O=C=NC(=O)SCc1ccccc1 |
| 148 to 150 | CN1CCC(c2c[nH]c3ccc(NS(=O)(=O)c4ccccc4)nc23)CC1 |
| 151 to 153 | CC1(C)CN=C2N(C1)c1ccc(C(=O)O)cc1C21OCCCO1 |
| 147 to 149 | Cc1cc(-c2c3ccccc3c(C)c3sc4ccccc4c23)cc(C)c1O |
| 82 to 83 | O=Cc1ccc(-c2ccccc2)c(F)c1 |
| 95.5 to 96.2 | Cc1[nH]c2ccc(C(=O)NS(=O)(=O)CCCCl)cc2c1Cc1ccc(Cl)cc1Cl |
| 294 to 296 | Nc1nc(Nc2ccc(S(N)(=O)=O)cc2)sc1C(=O)c1c(Cl)cc(C(F)(F)F)cc1Cl |
| 203 to 209 | COc1ccc2c(c1)c1c3c(c(-c4c(Cl)cccc4Cl)cc1n2CCC(=O)O)C(=O)NC3=O |
| 79.3 to 80.2 | COc1ccc(C=CC(=O)c2cccc(OC)c2OC)cc1F |
| 172 to 174 | C[C@]12CCC(=O)N[C@@H]1CCc1cc(SCc3ccccc3)ccc12 |
| 92.5 to 94 | CC(C)=CC(C#N)NC(=O)c1cc(C)nn1C (stereo not given) |
| 100 to 101 | CC(C)c1ccc(NC(=O)OC(C)(C)C)c(N)c1 |
| 140 to 141 | Cc1cc(OC(=O)c2ccccc2)cc(C)c1O |
| 207 to 209 | O=C(NCc1ccc2c(c1)OCO2)c1ccc(C(=O)NCc2ccc3c(c2)OCO3)s1 |
| 178 to 180 | COc1cc2c(c(Cl)c1Cl)SCC2=O |
| 72 to 74 | CCCCS(=O)(=O)On1nnc2ccc(Cl)cc21 |

| Structure (SMILES) | melting point [°C] |
| --- | --- |
| COC(=O)Nc1nc(C)c(-c2nc3ccccc3c(=O)n2-c2ccccc2)s1 | > 275 |
| CC1(C)CCC(C)(C)c2c(O)ccc(O)c21 | 114 |
| COc1cc(NC(=O)C2C(=O)N(C)C(=S)N(C)C2=O)ccc1Oc1ccc(C(F)(F)F)cc1Cl | 178 to 182 |
| Cc1c(C2=CCC(c3ccccc3)(N(C)C)CC2)[nH]c2ccc(C#N)cc12 (stereo not given) | 180 to 185 |
| COC(=O)c1nc(CN(C)C)n(-c2ccc(Cl)cc2C(=O)c2ccccc2)n1 | 118 to 121 |
| CC1=NC(C)(C)SC1=NOC(=O)N(C)C | 92 to 95 |

Reference: a melting point compilation (Tetko et al.; mined from patent text by program, amines drawn as free bases though some values may be those of a salt)
